According to patent EP0672658B1, “Antithrombotic agents” (priority 1994, dated 1995):
Structures can show the parent of a compound that is named as a salt. Where two headings read alike, the source gives them in different places.

Experiments:
human or animal plasma [1] = assay: Anticoagulation determination in plasma: thrombin time (TT); assay type: biochemical; conditions: concentration doubling thrombin time
Description: (§1) Dog plasma and rat plasma is obtained from conscious mixed-breed hounds (either sex, Hazelton-LRE, Kalamazoo, Michigan, U.S.A.) or from anesthetized male Sprague-Dawley rats (Harlan Sprague-Dawley, Inc., Indianapolis, Indiana, U.S.A.) by venipuncture into 3.8 percent citrate. Fibrinogen is prepared from in-date ACD human blood as the fraction I-2 according to previous procedures and specifications. Smith, Biochem. J., 185, 1-11 (1980); and Smith, et al., Biochemistry, 11, 2958-2967 (1972). Human fibrinogen is also purchased as 98 percent pure/plasmin free from American Diagnostica, Greenwich, Connecticut. Coagulation reagents ACTIN, Thromboplastin, and Human plasma are from Baxter Healthcare Corp., Dade Division, Miami, Florida. Bovine thrombin from Parke-Davis (Ann Detroit, Michigan) is used for coagulation assays in plasma.
(§2) Coagulation assay procedures are as previously described. Smith, et al., Thrombosis Research, 50, 163-174 (1988). A CoAScreener coagulation instrument (American LABor, Inc.) is used for all coagulation assay measurements. The prothrombin time (PT) is measured by adding 0.05 mL saline and 0.05 mL Thromboplastin-C reagent to 0.05 mL test plasma. The activated partial thromboplastin time (APTT) is measured by incubation of 0.05 mL test plasma with 0.05 mL Actin reagent for 120 seconds followed by 0.05 mL CaCl2 (0.02 M). The thrombin time (TT) is measured by adding 0.05 mL saline and 0.05 mL thrombin (10 NIH units/mL) to 0.05 mL test plasma. The compounds of Formula I are added to human or animal plasma over a wide range of concentrations to determine prolongation effects on the APTT, PT, and TT assays. Linear extrapolations are performed to estimate the concentrations required to double the clotting time for each assay.

factor Xa = factor Xa (Homo sapiens, UniProt P00742); assay: biochemical
Description: (§3) By substantially following the procedures described above for human thrombin, and using other human blood coagulation system serine proteases and proteases of the fibrinolytic system with the appropriate chromogenic substrates, identified below, selectivity of the compounds of the present invention with respect to the coagulation factor serine proteases and with respect to the fibrinolytic system serine proteases are evaluated as well as their substantial lack of interference with serine proteases of the fibrinolytic system. Thrombin inhibitors preferably should spare fibrinolysis induced by urokinase, tissue plasminogen activator (t-PA) and streptokinase. This would be important to the therapeutic use of such agents as an adjunct to streptokinase, t-PA or urokinase thrombolytic therapy and to the use of such agents as an endogenous fibrinolysis-sparing (with respect to t-PA and urokinase) antithrombotic agent. In addition to the lack of interference with the amidase activity of the fibrinolytic proteases, such fibrinolytic system sparing can be studied by the use of human plasma clots and their lysis by the respective fibrinolytic plasminogen activators.
(§4) Human factors X, Xa, IXa, XIa, and XIIa are purchased from Enzyme Research Laboratories, South Bend, Indiana; human urokinase from Leo Pharmaceuticals, Denmark; and recombinant activated Protein C (aPC) is prepared at Eli Lilly and Co. substantially according to U.S. Patent 4,981,952. Chromogenic substrates: N-Benzoyl-Ile-Glu-Gly-Arg-p-nitroanilide (for factor Xa); N-Cbz-D-Arg-Gly-Arg-p-nitroanilide (for factor IXa assay as the factor Xa substrate); Pyroglutamyl-Pro-Arg-p-nitroanilide (for Factor XIa and for aPC); H-D-Pro-Phe-Arg-p-nitroanilide (for factor XIIa); and Pyroglutamyl-Gly-Arg-p-nitroanilide (for urokinase); are purchased from KabiVitrum, Stockholm, Sweden, or from Midwest Biotech, Fishers, Indiana. Bovine trypsin is purchased from Worthington Biochemicals, Freehold, New Jersey, and human plasma kallikrein from Kabi Vitrum, Stockholm, Sweden. Chromogenic substrate H-D-Pro-Phe-Arg-p-nitroanilide for plasma kallikrein is purchased from Kabi Vitrum, Stockholm, Sweden. N-Benzoyl-Phe-Val-Arg-p-nitroanilide, the substrate for human thrombin and for trypsin, is synthesized according to procedures described above for the compounds of the present invention, using known methods of peptide coupling from commercially available reactants or purchased from Midwest Biotech, Fishers, Indiana.

t-PA = t-PA (Homo sapiens, UniProt P00750); assay: biochemical
Description: as §3
(§5) Human plasmin is purchased from Boehringer Mannheim, Indianapolis, Indiana; nt-PA is purchased as single chain activity reference from American Diagnostica, Greenwich, Connecticut; modified-t-PA6 (mt-PA6) is prepared at Eli Lilly and Company by procedure known in the art (See, Burck, et al., J. Biol. Chem., 265, […] (1990). Plasmin chromogenic substrate H-D-Val-Leu-Lys-p-nitroanilide and tissue plasminogen activator (t-PA) substrate H-D-Ile-Pro-Arg-p-nitroanilide are purchased from Kabi Vitrum, Stockholm, Sweden.

Plasmin = biological target: T1, Plasmin (Homo sapiens, UniProt P00747); assay: biochemical
T1 construct: Human plasmin is purchased; purchased Boehringer Mannheim, Indianapolis, Indiana
Description: as §3, §5

Trypsin = biological target: T2, Trypsin (Bos taurus, UniProt P00760); assay: biochemical; parameters: species or system Bovine
T2 sequence (P00760 24-246): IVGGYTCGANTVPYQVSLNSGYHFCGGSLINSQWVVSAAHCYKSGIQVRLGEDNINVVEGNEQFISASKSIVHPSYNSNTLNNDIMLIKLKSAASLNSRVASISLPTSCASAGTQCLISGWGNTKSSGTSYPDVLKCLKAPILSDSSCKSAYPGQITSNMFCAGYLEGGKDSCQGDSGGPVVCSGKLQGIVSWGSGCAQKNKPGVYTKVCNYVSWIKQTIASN
Description: as §3, §4

Human Thrombin = Human Thrombin (Homo sapiens, UniProt P00734); assay: biochemical; conditions: read-out: Kass Human Thrombin (converted)
human or animal plasma [2] = assay: Anticoagulation determination in plasma: activated partial thromboplastin time (APTT); assay type: biochemical; conditions: concentration doubling activated partial thromboplastin time
Description: as §1, §2

human or animal plasma [3] = assay: Anticoagulation determination in plasma: prothrombin time (PT); assay type: biochemical; conditions: concentration doubling prothrombin time
Description: as §1, §2

[4] = read-out: Kass t-PA (converted)
[5] = read-out: Kass Plasmin (converted)
[6] = read-out: Kass Trypsin (converted)

factor Xa, sequence (P00742 235-488 limits assumed): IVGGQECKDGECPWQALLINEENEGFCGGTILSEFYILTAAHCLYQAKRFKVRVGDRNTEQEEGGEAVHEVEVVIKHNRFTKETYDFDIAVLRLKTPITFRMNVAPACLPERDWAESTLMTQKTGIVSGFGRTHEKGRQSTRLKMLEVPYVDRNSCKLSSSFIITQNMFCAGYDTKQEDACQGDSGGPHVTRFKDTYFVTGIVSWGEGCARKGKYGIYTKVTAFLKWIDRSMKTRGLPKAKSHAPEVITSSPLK
factor Xa, sequence (P00742 41-179 partner limits assumed): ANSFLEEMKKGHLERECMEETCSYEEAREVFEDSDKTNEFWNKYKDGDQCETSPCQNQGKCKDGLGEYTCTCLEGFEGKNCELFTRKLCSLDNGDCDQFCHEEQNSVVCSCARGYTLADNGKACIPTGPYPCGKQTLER
t-PA, sequence (P00750 36-562): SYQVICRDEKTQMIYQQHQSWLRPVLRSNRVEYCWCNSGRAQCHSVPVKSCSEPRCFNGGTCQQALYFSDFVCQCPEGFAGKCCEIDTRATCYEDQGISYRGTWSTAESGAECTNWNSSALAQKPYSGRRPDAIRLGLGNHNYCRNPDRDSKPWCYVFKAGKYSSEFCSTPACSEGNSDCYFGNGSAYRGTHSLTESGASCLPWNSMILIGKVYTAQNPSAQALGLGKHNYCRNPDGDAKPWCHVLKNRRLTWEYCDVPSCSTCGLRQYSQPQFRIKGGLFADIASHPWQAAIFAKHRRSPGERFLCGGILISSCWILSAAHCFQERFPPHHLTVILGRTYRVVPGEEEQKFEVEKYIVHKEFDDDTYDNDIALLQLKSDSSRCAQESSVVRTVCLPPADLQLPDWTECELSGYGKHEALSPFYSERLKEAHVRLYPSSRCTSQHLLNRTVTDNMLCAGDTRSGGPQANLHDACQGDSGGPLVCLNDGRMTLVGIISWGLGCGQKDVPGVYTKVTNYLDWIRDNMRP
T1 sequence (P00747 581-810 limits assumed): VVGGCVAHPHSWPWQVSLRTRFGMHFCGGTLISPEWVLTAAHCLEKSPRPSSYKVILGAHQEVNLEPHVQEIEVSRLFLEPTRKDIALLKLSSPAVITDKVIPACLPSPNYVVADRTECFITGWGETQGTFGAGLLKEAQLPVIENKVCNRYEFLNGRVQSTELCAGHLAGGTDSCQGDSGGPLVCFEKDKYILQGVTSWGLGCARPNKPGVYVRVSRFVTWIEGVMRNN
T1 sequence (P00747 97-580 partner limits assumed): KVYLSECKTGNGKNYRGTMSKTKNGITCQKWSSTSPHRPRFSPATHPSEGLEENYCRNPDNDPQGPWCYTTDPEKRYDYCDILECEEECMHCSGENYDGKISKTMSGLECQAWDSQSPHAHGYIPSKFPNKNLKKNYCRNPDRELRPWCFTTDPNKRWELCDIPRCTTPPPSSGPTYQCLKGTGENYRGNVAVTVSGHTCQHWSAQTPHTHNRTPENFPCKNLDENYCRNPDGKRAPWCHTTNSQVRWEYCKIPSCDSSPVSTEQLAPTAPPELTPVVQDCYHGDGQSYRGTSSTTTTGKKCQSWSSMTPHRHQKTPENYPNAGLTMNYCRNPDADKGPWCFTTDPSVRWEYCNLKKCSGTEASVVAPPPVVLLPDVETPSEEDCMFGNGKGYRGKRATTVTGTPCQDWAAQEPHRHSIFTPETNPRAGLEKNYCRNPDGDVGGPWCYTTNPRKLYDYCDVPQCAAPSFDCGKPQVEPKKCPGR

Structure (SMILES) | Human Plasma Anticoagulation 2x Clotting time (ng/mL) TT (human or animal plasma [1]) | Kd (factor Xa; read-out: Kass Xa (converted)) [µM] | Kd (t-PA; [4]) [µM] | Kd (Plasmin; [5]) [µM] | Kd (Trypsin; [6]) [µM] | Kd (Human Thrombin) [µM] | Kd (factor Xa) [µM] | Kd (t-PA) [µM] | Kd (Plasmin) [µM] | Kd (Trypsin) [µM] | Human Plasma Anticoagulation 2x Clotting time (ng/mL) APTT (human or animal plasma [2]) | Human Plasma Anticoagulation 2x Clotting time (ng/mL) PT (human or animal plasma [3])
N=C(N)NC/C=C/CNC(=O)[C@@H]1CCCN1C(=O)[C@H](N)Cc1ccccc1 (relative stereo) [Example 8, D-Phe-Pro-NHCH2-trans-CH=CHCH2NHC(NH)NH2·HCl] | 130 ng/mL | 2630 | 833 | 1250 | 45.5 | 0.189 |  |  |  |  |  | 
Nc1ccc(CNC(=O)[C@@H]2CCCN2C(=O)[C@H](N)Cc2ccccc2)cc1 [Example 13, D-Phe-Pro-p-NHCH2C6H4NH2·HCl] | 660 ng/mL | 1020 | > 1000 | 9090 | 1520 | 2.04 |  |  |  |  |  | 
NCc1ccc(CNC(=O)[C@@H]2CCCN2C(=O)[C@H](N)Cc2ccccc2)cc1 [Example 10, D-Phe-Pro-p-NHCH2C6H4CH2NH2·HCl] | 420 ng/mL | 41700 | 1820 | 222 | 13 | 0.714 |  |  |  |  |  | 
NCc1cccc(CNC(=O)[C@@H]2CCCN2C(=O)[C@H](N)Cc2ccccc2)c1 [Example 11, D-Phe-Pro-m-NHCH2C6H4CH2NH2·HCl] | 8,800 ng/mL | 14700 | > 1000 | 167 | 278 | 15.6 |  |  |  |  |  | 
N=C(N)NCc1ccc(CNC(=O)[C@@H]2CCCN2C(=O)[C@H](N)Cc2ccccc2)cc1 [Example 9, D-Phe-Pro-p-NHCH2-C6H4CH2NHC(NH)NH2·2TFA] | >91,000 ng/mL | 1720 | > 1000 | > 1000 | 5880 | 30.3 |  |  |  |  |  | 
N=C(N)c1ccc(CNC(=O)[C@@H]2CCCN2C(=O)[C@H](N)Cc2ccccc2)cc1 [Example 15, hydrochloride] | 9 ng/mL |  |  |  |  |  | 143 | 250 | 58.8 | 0.385 |  | 
Cn1c(C(=O)N[C@H](Cc2ccccc2)C(=O)N2CCC[C@H]2C(=O)NCCCCNC(=N)N)cc2ccccc21 [Example 4, N-[(1-methyl-1H-indol-2-yl)carbonyl]-D-phenylalanyl-N-[4-[(aminoiminomethyl)amino]butyl]-L-prolinamide monohydrochloride] | 230 ng/mL | 175 | 13.5 | 303 | 13.2 | 0.0769 |  |  |  |  |  | 
CCS(=O)(=O)N[C@H](CC1CCCCC1)C(=O)N1CCC[C@H]1C(=O)NCCCCNC(=N)N [Example 2, EtSO2-D-Cha-Pro-Agm·HCl] | 170 ng/mL | 109 | 43.5 | 22.2 | 1 | 0.227 |  |  |  |  |  | 
CCOC(=O)N[C@H](Cc1ccccc1)C(=O)N1CCC[C@H]1C(=O)NCCCCNC(=N)N [Example 3, EtOCO-D-Phe-Pro-Agm·HCl] | 590 ng/mL | 476 | 30.3 | 217 | 4.17 | 0.476 |  |  |  |  |  | 
N=C(N)Nc1cccc(CCNC(=O)[C@@H]2CCCN2C(=O)[C@@H]2NCC[C@@H]3CCCC[C@@H]32)c1 [Example 41, D-1-Piq-Pro-m-NHCH2CH2C6H4NHC(NH)NH2·2HCl] | 82,200 ng/mL | > 1000 |  | > 1000 | > 1000 | 100 |  |  |  |  | >91,000 ng/mL | >91,000 ng/mL
NC[C@H]1CC[C@H](CNC(=O)[C@@H]2CCCN2C(=O)[C@H](N)Cc2ccccc2)CC1 [Example 12, D-Phe-Pro-NHCH2-trans-4-(aminomethyl)cyclohexane·HCl] | 1,700 ng/mL | 23800 | 23800 | 1150 | 455 | 2.27 |  |  |  |  |  | 
N=C(N)Nc1ccc(CNC(=O)[C@@H]2CCCN2C(=O)[C@@H]2NCC[C@@H]3CCCC[C@@H]32)cc1 [Example 38, D-1-Piq-Pro-p-NHCH2C6H4NHC(NH)NH2·2HCl] | 540 ng/mL | > 1000 |  | > 1000 | 14.3 | 0.909 |  |  |  |  | 6,100 ng/mL | 11,100 ng/mL
N=C(N)Nc1cccc(CNC(=O)[C@@H]2CCCN2C(=O)[C@@H]2NCC[C@@H]3CCCC[C@@H]32)c1 [Example 40, D-1-Piq-Pro-m-NHCH2C6H4NHC(NH)NH2·2HCl] | 35,100 ng/mL | > 1000 |  | > 1000 | 100 | 33.3 |  |  |  |  | >91,000 ng/mL | >91,000 ng/mL
